Assay results: US12729382B2, “Tea plant CsVAAT3 gene and use thereof” (Anhui Agricultural University, priority 2022, dated 2026)

Test system: wild-type BY4743 and yeast vacuolar amino acid mutants YPQ2, AVT2, AVT6
Test: Yeast dotting growth phenotype on high-concentration theanine medium
Assay type: cell-based
Details: theanine 50 mM
Procedure: Yeast mutants YPQ2, AVT2, and AVT6 are high-concentration theanine-sensitive strains, and their growth is inhibited in a high-concentration theanine environment, which was used to verify the stress resistance of the selected genes. The YPQ2 strain was streaked on YPDA Agar Medium and cultured upside down in a constant temperature incubator at 28° C. for 2-3 days. A well-grown single colony was picked in a 2 mL centrifuge tube, added with 1 mL of YPDA Liquid Medium, and incubated at 28° C. on a shaker at 180 r/min for one day. 200 μL of well-grown yeast suspension was transferred to 30 mL of YPDA Liquid Medium, and incubated on a shaker at 28° C. and 180 r/min for 12-24 h. […] 500 μL of PEG mixture and 5 μL of DTT (1 M, ready for use) were added and vortexed. […]
A single colony was picked in 20 mL of SD-U […] medium and shaken to an OD600 value of about 1.0 at 28° C. and 180 r/min (for about 48 h); 4 mL of yeast suspension was pipetted and centrifuged at 5,000 rpm for 2 min, the supernatant was discarded (under aseptic operation), cells were resuspended with sterile water, and the OD600 value was detected; the yeast suspension was diluted with sterile water to an OD600 value of 0.6 (the difference between the OD600 values of each sample should not exceed 0.02); (under aseptic operation) the yeast suspension was diluted to 10^0, 10^−1, 10^−2, and 10^−3 in turn. […]

CCNC(=O)CC[C@H](N)C(=O)O [theanine]
growth of yeast under theanine treatment (CsVAAT3-transformed yeast mutants (pDR196-CsVAAT3)): normal growth state | growth of yeast under theanine treatment (wild-type BY4743 and mutants YPQ2, AVT2, AVT6 (empty vector pDR196), solid medium, 30° C., about three days): significantly inhibited
